Experiments:
Format in all cases: cell-based
[1] = target: T1, thromboxane receptor sites (Homo sapiens, UniProt P21731); test: Human Platelet System (inhibition of aggregation by 11,9-(epoxymethano) PGH2 in platelet-rich plasma); details: Gaddum-Schild Equation, agonist 11,9-(epoxymethano) PGH2, compound added 5 minutes before agonist, typical values, read-out: Affinity Constants (KB) Human Platelets (converted)
T1 construct: Platelet-rich plasma is obtained from fresh, citrated human blood; endogenous in cells; host or cells: human platelets in platelet-rich plasma from fresh citrated blood
T1 sequence (P21731 1-343): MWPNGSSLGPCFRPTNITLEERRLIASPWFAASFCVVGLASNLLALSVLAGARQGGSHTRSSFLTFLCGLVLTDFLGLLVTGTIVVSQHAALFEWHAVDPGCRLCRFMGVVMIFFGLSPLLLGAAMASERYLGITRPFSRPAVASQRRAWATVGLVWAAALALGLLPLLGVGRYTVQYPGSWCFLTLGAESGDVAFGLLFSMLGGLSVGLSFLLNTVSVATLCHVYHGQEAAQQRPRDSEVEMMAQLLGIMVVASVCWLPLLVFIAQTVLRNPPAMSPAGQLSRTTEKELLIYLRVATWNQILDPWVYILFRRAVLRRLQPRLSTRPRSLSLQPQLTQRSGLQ
Description: (§1) The compound of Example 2 and various of the compounds of Example 8 are tested in the following three systems.
Platelet-rich plasma is obtained from fresh, citrated human blood. Addition of the agonist 11,9-(epoxymethano) PGH2 (1×10^-7 to 5×10^-7 M) causes immediate aggregation recorded as an increase in light transmission (600 nm). In a second experiment the compound under test is added 5 minutes previous to the addition to the PGH2 analogue. The dose of the PGH2 analogue added is then increased to a level which gives a similar response to that obtained in the absence of antagonist.
(§2) In the case of each system, the affinity constant, KB, for the compound under test is calculated according to the Gaddum-Schild Equation (based on Law of Mass Action). [formula]

[2] = target: T2, thromboxane receptor sites (Oryctolagus cuniculus, UniProt Q6WQI8); test: Rabbit Aorta System (inhibition of tension response of spiral strips of thoracic aorta to 11,9-(epoxymethano) PGH2); details: for Kb: Gaddum-Schild Equation, agonist 11,9-(epoxymethano) PGH2, compound added 50 minutes before agonist, 37° C, typical values, read-out: Affinity Constants (KB) Rabbit Aorta (converted)
T2 construct: contraction to 11,9-(epoxymethano) PGH2 (U-46619)
T2 sequence (Q6WQI8 1-233): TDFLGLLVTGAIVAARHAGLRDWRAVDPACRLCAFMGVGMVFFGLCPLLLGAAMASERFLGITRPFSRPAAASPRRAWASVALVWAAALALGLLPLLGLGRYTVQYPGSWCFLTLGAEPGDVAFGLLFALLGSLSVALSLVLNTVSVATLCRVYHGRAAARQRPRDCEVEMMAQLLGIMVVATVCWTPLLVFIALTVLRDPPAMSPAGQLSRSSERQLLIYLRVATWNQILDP
Description: as §1
Sprial strips of thoracic aorta are suspended in Kreb's-Henseleit solution aerated with 95% O2 /5% CO2 and maintained at 37° C. Tension changes are recorded with a Grass FTO3 force transducer. Initially, cumulative dose response curves to the agonist 11,9-(epoxymethano) PGH2 are obtained (typically at concentrations of 2×10^-9, 1×10^-8, 5×10^-8 and 2.5×10^-7 M). In a second experiment, the compound under test is added 50 minutes previous to the addition of the series of agonist doses.
as §2

[3] = target: T3, thromboxane receptor sites (Cavia porcellus, UniProt A0A286Y4I8); test: Guinea Pig Trachea System (inhibition of tension response of spiral strips of trachea to 11,9-(epoxymethano) PGH2); details: Gaddum-Schild Equation; agonist 11,9-(epoxymethano) PGH2; atropine sulphate and indomethacin present; compound added 50 minutes before agonist; 37° C; typical values; read-out: Affinity Constants (KB) Guinea Pig Trachea (converted)
T3 construct: from tissue; host or cells: guinea pig trachea, spiral strips
T3 sequence (A0A286Y4I8 1-347): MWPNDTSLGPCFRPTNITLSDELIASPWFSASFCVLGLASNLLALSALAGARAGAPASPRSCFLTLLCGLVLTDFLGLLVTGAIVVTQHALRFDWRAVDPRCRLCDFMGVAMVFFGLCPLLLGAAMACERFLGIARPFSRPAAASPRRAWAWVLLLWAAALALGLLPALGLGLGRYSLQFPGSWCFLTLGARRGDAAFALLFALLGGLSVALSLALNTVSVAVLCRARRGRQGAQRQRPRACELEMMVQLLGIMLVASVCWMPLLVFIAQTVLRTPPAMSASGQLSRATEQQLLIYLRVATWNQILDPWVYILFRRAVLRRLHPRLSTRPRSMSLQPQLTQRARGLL
Description: as §1
Guinea Pig Trachea System
Spiral strips of trachea are suspended in Kreb's-Henseleit solution, additionally containing atropine sulphate (2×10^-8 M) and indomethacin (10^-6), aerated with 95% O2 /5% CO2 and maintained at 37° C. Tension changes are recorded with a Grass FTO3 force transducer. Initially, cumulative dose response curves to the agonist 11,9-(epoxymethano) PGH2 are obtained (typically at the same concentrations as for the rabbit aorta system). In a second experiment, the compound under test is added 50 minutes previous to the addition of the series of agonist doses.
as §2

O=C(O)CCC/C=C\C[C@H]1[C@H]2CC[C@H](C2)[C@@H]1CNC(=O)Nc1ccccc1 (relative stereo) [--CH2 NHCONHC6 H5, 5-endo-(6'-Carboxyhex-2'Z-enyl)-6-exo-[N-(phenylcarbamoyl)-aminomethyl]-bicyclo[2,2,1]heptane]
Kb [1]: 3570 nM | Kb [2]: 1000 nM | pure antagonist activity in the rabbit aorta system ([2]; in words): pure antagonist activity | Kb [3]: 323 nM

COc1ccc(NC(=O)NCCC2C3C=CC(C3)C2C/C=C\CCCC(=O)O)cc1 (centres unmarked) [--(CH2)2 NHCONHC6 H4 OCH3 (p)]
Kb [2]: 833 nM | Kb [3]: 145 nM

O=C(O)CCC/C=C\CC1C2C=CC(C2)C1CCNC(=O)Nc1ccccc1 (centres unmarked) [--(CH2)2 NHCONHC6 H5]
Kb [1]: 29400 nM | Kb [2]: 345 nM | Kb [3]: 196 nM

COc1ccc(NC(=S)NCCC2C3C=CC(C3)C2C/C=C\CCCC(=O)O)cc1 (centres unmarked) [--(CH2)2 NHCSNHC6 H4 OCH3 (p)]
Kb [1]: 12500 nM | Kb [2]: 526 nM

COc1ccc(NC(=S)NC(C)CC2C3C=CC(C3)C2C/C=C\CCCC(=O)O)cc1 (centres unmarked) [--CH2 CH(CH3)NHCSNHC6 H4 OCH3 (p)]
Kb [1]: 5000 nM | Kb [2]: 1050 nM | Kb [3]: 123 nM

COc1ccc(NC(=S)NCC2C3C=CC(C3)C2C/C=C\CCCC(=O)O)cc1 (centres unmarked) [--CH2 NHCSNHC6 H4 OCH3 (p)]
Kb [1]: 13900 nM | Kb [2]: 169 nM | Kb [3]: 154 nM
